Legend:
Assay type in all cases: cell-based
A549 cells [1] = experiment: Incorporation of modified nucleosides into newly synthesized DNA, detection with HT-LgBiT/HT-SmBiT (NANOBiT), Example 1; settings: A549 500 cells/well, 10 uM, 4 hours, fixed, permeabilized, DNA denatured; HT-LgBiT and HT-SmBiT 50 nM
Procedure: A549 cells plated at 500 cells/well were cultured in medium containing PBI-7931 (FIG. 2A, top) or PBI-7960 (FIG. 2A, bottom) at 10 uM final concentration for 4 hours. Cells without modified nucleosides were used as control. After culturing, the media was removed, cells fixed, permeabilized, and DNA denatured using acid treatment. […] Following a one-hour incubation, NANOLUC substrate was added, and luminescence was measured (FIG. 2B).

A549 cells [2] = experiment: Simultaneous incorporation of modified nucleosides, all probes added together, NanoBiT detection, Example 8; settings: all probes added together at 5 or 12.5 uM each; A549 5,000 and 1,000 cells per well; compared to control cells
Procedure: (§1) Cells without modified nucleosides were used as a control (brown bars). Incorporation of modified nucleosides into DNA was determined by removing the media, fixing and permeabilizing the cells, denaturing DNA, and incubating with HaloTag-LgBiT (HT-LgBiT) and HaloTag-SmBiT (HT-SmBiT) diluted in PBS with 0.01% BSA at 50 nM final concentration. After 2 hours incubation, the reagents were removed, the samples were washed with PBS, NanoLuc substrate was added, and luminescence was measured (FIG. 4).
The experiment was conducted with A549 cells plated at 5,000 and 1,000 cells per well as described in Example 7.

A549 cells [3] = experiment: Incorporation of modified chloroalkane nucleoside measured without DNA denaturation, Example 9; settings: A549 5000 cells/well, 10 uM, 0.5 hours or 4 hours; HT-LgBiT and HT-SmBiT 25 nM
Procedure: A549 cells plated at 5000 cells/well were cultured in medium containing PBI-7960 at 10 uM final concentration for 0.5 hours (light blue bar) or 4 hours (dark blue bar). Cells without modified nucleosides were used as control (brown bar). Incorporation of modified nucleosides into DNA was determined by removing the media, fixing and permeabilizing the cells and incubating with HT-LgBiT and HT-SmBiT diluted in PBS with 0.01% BSA at 25 nM final concentration. After 1 hour incubation, the NanoLuc substrate was added, and luminescence was measured.

A549 cells [4] = experiment: Incorporation of modified nucleosides into newly synthesized DNA, NanoBiT detection, Example 7; settings: A549 5000 cells/well, 20 uM or 50 uM, 4.5 hours
Procedure: as §1, with “A549 cells plated at 5000 cells/well were cultured in medium containing PBI-9391, PBI-9392, or PBI-9393 at 20 uM (light blue bars) or 50 uM (dark blue bars) final concentration for 4.5 hours. Cells” for “Cells”

A549 cells [5] = experiment: Inhibition of DNA replication measured by modified nucleoside incorporation and NANOBiT luminescence, Example 2; settings: A549 2,000 cells/well, increasing doxorubicin for 2 hours, then PBI-7931 or -7960 at 10 uM for 4 hours
Procedure: A549 cells plated at 2,000 cells/well were treated with increasing concentrations of the DNA replication inhibitor doxorubicin for 2 hours in a tissue culture incubator. […] No compound was added to control cells. To measure the amount of newly synthesized DNA, HT-LgBiT and HT-SmBiT were added to the cells at 50 nM final concentration.

| Compound | Luminescence following incorporation of haloalkyl-modified nucleosides into newly-synthesized DNA (FIG. 2B) (A549 cells [1]) | Light output after simultaneous incorporation into newly synthesized DNA (FIG. 5) (A549 cells [2]) | Incorporation detected without DNA denaturation (FIG. 6) (A549 cells [3]) | Incorporation into newly synthesized DNA detected via NanoBiT (FIG. 4) (A549 cells [4]) | Inhibition of DNA synthesis, detected by reduction in luminescence (FIG. 3) (A549 cells [5]) |
| --- | --- | --- | --- | --- | --- |
| O=C(NCCOCCOCCCCCCCl)OCC#Cc1cn([C@H]2CC(O)[C@@H](CO)O2)c(=O)[nH]c1=O (some centres unmarked) [PBI-7931] | Luminescence detected |  |  |  |  |
| O=C(NCC#Cc1cn([C@H]2C[C@H](O)[C@@H](CO)O2)c(=O)[nH]c1=O)c1ccc(C(=O)NCCOCCOCCCCCCCl)cc1 [PBI-7960, N1-(2-(2-((6-chlorohexyl)oxy)ethoxy)ethyl)-N4-(3-(1-((2R,4S,5R)-4-hydroxy-5-(hydroxymethyl)tetrahydrofuran-2-yl)-2,4-dioxo-1,2,3,4-tetrahydropyrimidin-5-yl)prop-2-yn-1-yl)terephthalamide] | Luminescence detected | increase in light output | detected without DNA denaturation |  |  |
| Nc1nc(=O)n([C@H]2C[C@H](O)[C@@H](CO)O2)cc1C#CCOC(=O)NCCOCCOCCCCCCCl [PBI-9391, 3-(4-amino-1-((2R,4S,5R)-4-hydroxy-5-(hydroxymethyl)tetrahydrofuran-2-yl)-2-oxo-1,2-dihydropyrimidin-5-yl)prop-2-yn-1-yl (2-(2-((6-chlorohexyl)oxy)ethoxy)ethyl)carbamate] |  | increase in light output |  | incorporated into newly synthesized DNA |  |
| Nc1nc(=O)c2c(C#CCOC(=O)NCCOCCOCCCCCCCl)cn([C@H]3C[C@H](O)[C@@H](CO)O3)c2[nH]1 [PBI-9392, 3-(2-amino-7-((2R,4S,5R)-4-hydroxy-5-(hydroxymethyl)tetrahydrofuran-2-yl)-4-oxo-4,7-dihydro-1H-pyrrolo[2,3-d]pyrimidin-5-yl)prop-2-yn-1-yl(2-(2-((6-chlorohexyl)oxy)ethoxy)ethyl)carbamate] |  | increase in light output |  | incorporated into newly synthesized DNA |  |
| Nc1ncnc2c1c(C#CCOC(=O)NCCOCCOCCCCCCCl)cn2[C@H]1C[C@H](O)[C@@H](CO)O1 [PBI-9393, 3-(4-amino-7-((2R,4S,5R)-4-hydroxy-5-(hydroxymethyl)tetrahydrofuran-2-yl)-7H-pyrrolo[2,3-d]pyrimidin-5-yl)prop-2-yn-1-yl(2-(2-((6-chlorohexyl)oxy)ethoxy)ethyl)carbamate] |  | increase in light output |  | incorporated into newly synthesized DNA |  |
| COc1cccc2c1C(=O)c1c(O)c3c(c(O)c1C2=O)C[C@@](O)(C(=O)CO)C[C@@H]3O[C@H]1C[C@H](N)[C@H](O)[C@H](C)O1 [doxorubicin] |  |  |  |  | Inhibition of DNA synthesis |
